This is an account of results in patent publication US20190169218A1, “AMPHIPATHIC COMPOUND HAVING NOVEL PENTA-SACCHARIDE HYDROPHILIC GROUP AND USE THEREOF” (Industry-University Cooperation Foundation Hanyang …, priority 2016, published 2019).

In assay [1] the test system is T4L-β2AR-Gs or β2AR-Gs complexes. The experiment in a line: purification and stability of T4L-β2AR-Gs or β2AR-Gs complexes (analytical gel filtration, negative staining EM). Set-up: species or system human. The procedure:
The ability of PSE-C11 or TPS-E10L to purify and stabilize T4L-β2AR-Gs or β2AR-Gs complexes was measured using electron microscopy (EM) analysis.
Specifically, measurement of the ability of PSE-C11 for TPS-E10L to purify and stabilize T4L-β2AR-Gs or β2AR-Gs complexes was performed as follows. 100 μM T4L-β2AR solubilized in 0.1 wt % DDM was mixed with 120 μM Gs heterotrimers for 30 minutes. 0.5 units of apyrase (NEB) and 2 mM MgCl2 were added to the mixture, followed by a 1-hour incubation to form complexes. 1 wt % PSE-C11 or TPS-E10L was respectively added to the mixture to achieve a final concentration of 0.8%, and incubated for 30 minutes to allow DDM to be exchanged with PSE-C11 or TPS-E10L. […] Finally, proteins were eluted with a 0.05% (100×CMC) PSE-C11 or TPS-E10L buffer. Gel filtration was performed using a running buffer (20 mM HEPES (pH 7.5), 100 mM NaCl, 0.005% PSE-C11 or TPS-E10L, 1 μM BI, 100 μM TCEP) to purify T4L-β2AR-Gs complexes. To measure the stability of β2AR-Gs complexes present in PSE-C11 or TPS-E10L, analytical gel filtration was performed with running buffers of the same formulation at 12 hours, 1 day, 3 days, 7 days, and 15 days. After a 15 day-incubation, analytical gel filtration was performed using an amphiphilic compound pre-buffer having the same formulation as above without PSE-C11 or TPS-E10L.
In addition, negative staining EM analysis for T4L-β2AR-Gs or β2AR-Gs complexes present in PSE-C11 was performed as follows. Samples containing T4L-β2AR-Gs or β2AR-Gs were prepared to perform electron microscopy analysis using a conventional negative staining protocol (see Peisley, A. et al., G Protein-Coupled Receptors in Drug Discovery: Methods and Protocols, Methods in Molecular Biology, 1335, 29-38 (2015)), and imaging was performed by operating a Tecnai T12 electron microscope at 120 kV at room temperature. Images were recorded with a Gatan US4000 CCD camera at a 71,138×magnification with a defocus value of ˜[…].
A general note: SEC sorts molecules by how far they enter the pores of the column.

Assay [2] deals with T1, uric acid-xanthine/H+ symporter (UapA) (Emericella nidulans, UniProt Q07307, G411V).
T1 construct: GFP; made in house; host or cells: Saccharomyces cerevisiae FGY217
T1 sequence (Q07307 12-574 G411V): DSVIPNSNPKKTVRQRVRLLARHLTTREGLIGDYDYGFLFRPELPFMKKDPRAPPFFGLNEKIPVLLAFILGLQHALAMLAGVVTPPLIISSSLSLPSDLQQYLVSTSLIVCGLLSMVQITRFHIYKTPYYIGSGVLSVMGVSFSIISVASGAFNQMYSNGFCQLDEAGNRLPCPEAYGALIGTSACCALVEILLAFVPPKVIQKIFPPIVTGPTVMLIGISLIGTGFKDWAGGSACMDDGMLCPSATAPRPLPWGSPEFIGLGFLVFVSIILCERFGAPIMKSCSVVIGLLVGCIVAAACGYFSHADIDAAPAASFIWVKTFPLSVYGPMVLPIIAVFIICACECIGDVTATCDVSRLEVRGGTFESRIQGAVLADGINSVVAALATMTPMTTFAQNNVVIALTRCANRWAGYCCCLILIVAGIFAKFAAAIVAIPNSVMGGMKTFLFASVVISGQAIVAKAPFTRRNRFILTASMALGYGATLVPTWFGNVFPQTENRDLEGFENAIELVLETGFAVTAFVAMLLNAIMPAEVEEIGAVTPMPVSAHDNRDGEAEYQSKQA
The experiment in a line: thermal stability of UapA by CPM analysis. On the set-up: species or system Aspergillus nidulans. As to conditions: CMC+0.04 wt % and CMC+0.2 wt %, 40° C., 120 minutes. The procedure: The ability of TPSs (TPS-As, TPS-Es and TPS-ELs) to stabilize the structure of uric acid-xanthine/H+ symporter (UapA) isolated from Aspergillus nidulans was measured. The structural stability of UapA was evaluated using a sulfhydryl-specific fluorophore, N-[4-(7-diethylamino-4-methyl-3-coumarinyl)phenyl]maleimide (CPM).
Specifically, UapAG411V1-11 (hereinafter, referred to as ‘UapA’) was expressed in a Saccharomyces cerevisiae FGY217 strain as a GFP fusion protein, and was isolated using a sample buffer (20 mM Tris (pH 7.5), 150 mM NaCl, 0.03% DDM, 1 mM xanthine). The transporter was concentrated to about 10 mg/mL using a 100 kDa molecular weight cut-off filter (Millipore). The transporter was diluted with a CMC+0.04 wt % or CMC+0.2 wt % buffer at a ratio of 1:150 in a Greiner 96-well plate containing one of TPS-As (TPS-A6, TPS-A7 or TPS-A8), TPS-Es (TPS-E6, TPS-E7 or TPS-E8), TPS-ELs (TPS-E8L, TPS-E9L, TPS-E10L or TPS-E11L), MNG-3 or DDM (control group). […] During incubation, fluorescence emission intensity was monitored using a microplate spectrophotometer set at excitation and emission wavelengths of 387 and 463 nm, respectively. The maximum value of fluorescence intensity was used to calculate the relative percentage of folded transporters during the incubation period. […]

The test system of assay [3] is T4L-β2AR-Gs or β2AR-Gs complexes. As to conditions: purified by DDM, 4° C., reported in the prior art; cited from earlier work.

Consider `CCCCCCCCCCCOCC(COCCCCCCCCCCC)O[C@@H]1OC(CO[C@@H]2OC(CO)[C@@H](O)C(O)C2O)[C@@H](O[C@@H]2OC(CO)[C@@H](O)C(O)C2O)C(O[C@@H]2OC(CO)[C@@H](O)C(O)C2O)C1O[C@@H]1OC(CO)[C@@H](O)C(O)C1O` (stereo partly shown) [PSE-C11], for which the “stability of β2AR-Gs complexes (analytical gel filtration)” value in assay [1] (after incubation for 15 and 17 days) is given as “no separation of the complexes was observed at all”. For the same molecule, the stability of complexes entry in assay [1] (buffer without the amphipathic compound as eluent) is on record as “completely stable”.

`CCCCCCCCOCC(COCCCCCCCC)(COCCCCCCCC)CO[C@@H]1OC(CO[C@@H]2OC(CO)[C@@H](O)C(O)C2O)[C@@H](O[C@@H]2OC(CO)[C@@H](O)C(O)C2O)C(O[C@@H]2OC(CO)[C@@H](O)C(O)C2O)C1O[C@@H]1OC(CO)[C@@H](O)C(O)C1O` (stereo partly shown) [TPS-E8]: the “maintaining folding state of UapA (CPM)” value in assay [2] is “the most excellent among TPS-As/Es”.

Regarding `CCCCCCCCCCCCO[C@@H]1O[C@H](CO)[C@@H](O[C@H]2O[C@H](CO)[C@@H](O)[C@H](O)[C@H]2O)[C@H](O)[C@H]1O` [DDM, n-dodecyl-β-D-maltopyranoside, reference compound], the “stability of T4L-β2AR-Gs complexes” value in assay [3] is given as “complex separation was observed even after 2 days of incubation”.
